Experimental data taken from patent US20240116921A1, “LACTAM (HETERO)[…] DERIVATIVES AS INHIBITORS OF ERBB2” (EnLiven Therapeutics, Inc., priority 2020, published 2024).

Experiments:
[1] = target: Ba/F3 ERBB2 A775_G776insYVMA (Homo sapiens, UniProt P04626, DUP772-775, cells depend on it); test: Cell viability assay, Ba/F3 ERBB2 A775_G776insYVMA; assay type: cell-based, mouse; conditions: Ba/F3 ERBB2 YVMA cells, cell viability, 72 hours, CellTiter Glo; Table B5; read-out: Ba/F3 ERBB2 YVMA, IC50
Method: Cells were treated with compounds, and cell viability was measured as a metric of kinase inhibition.
The Ba/F3 cell line is IL-3-dependent mouse cell line derived from the C3H mouse strain. Ba/F3 cell lines were engineered to express human ERBB2 or EGFR kinases, rendering the cells IL-3 independent. The lines were generated via retroviral transduction utilizing a Moloney murine leukemia virus (MMLV) promoter, and constructs are stably integrated into the cell genome. The sequences of the ERBB2 and EGFR genes used were NCBI Reference Sequences NM_004448.3 and NM_005228.3, respectively.
Similarly, Ba/F3 cell lines engineered to express EGFR, ERBB2, or ERBB2 mutants were grown, harvested, counted and seeded at 3000 cells per well in 96-well plates. A subset of wells contained media only (low control, “LC”).
Table B1 provides the growth media and number of cells seeded per well for the each cell line.
Plates were placed in a 37° C., 5% CO2 incubator for 72 hours. Plates were then removed from the incubator and equilibrated for 15 minutes at room temperature. 40 μl of CellTiter Glo reagent (Promega) was added to measure the relative level of metabolically active cells by quantifying intracellular ATP concentrations. Plates were incubated for 30 minutes at room temperature, and luminescence was measured. […] Graphical curves were fitted using a nonlinear regression model with a sigmoidal dose response.

[2] = target: T1, phosphorylated ERBB2 (pERBB2) (Homo sapiens, UniProt P04626); test: Detection of phosphorylated ERBB2 (pERBB2) by ELISA in BT-474 cells; assay type: cell-based; conditions: four hours incubation
T1 construct: endogenous in cells; host or cells: BT-474
Method: BT-474 cells were seeded into a 96-well at 2.0*10^4 cells/100 μl/well.
Compounds were dissolved and serially diluted in DMSO. The compounds were then were added, mixed, and incubated for four hours at 37° C., 5% CO2. Compounds were added using four-fold dilutions at final concentrations ranging from 10 μM to 0.01 nM.
Following the four hour incubation with compounds, cell lysates were prepared.
Plates were centrifuged for 5 min at 3000 RPM, and supernatant was removed from each well. Cells were washed 3 times by resuspension in 150 μl PBS, followed by centrifugation and removal of the supernatant, as above. […] Cells were incubated with lysis buffer for 1 hour at 4° C., and then stored at −80° C.
Enzyme-linked immunosorbent assays (ELISA) were performed to measure phosphorylated ERBB2 levels. […] The next day, plates were washed with PBS+0.05% Tween20 (PBST). 150 μl of 5% BSA blocking solution was added for 1 hour at room temperature, with shaking. Plates were washed with PBST. Cell lysates were thawed and 100 μl of lysate was added to the ELISA plate. The plates were incubated for 2 hours at room temperature, with shaking. […] Plates were incubated for 1 hour at room temperature, with shaking. Plates were then washed with PBST, and 100 μl TMB substrate solution (R&D Systems, cat #DY999) was added. Plate were incubated in the dark for 20 minutes at room temperature. 50 μl of Stop solution (R&D Systems, cat #DY994) (50 μl) was added to each well and mixed.
Optical density at 450 nm was read on an EnSpire plate reader (Perkin Elmer). The remaining kinase activity by calculated using the following formula: % Relative activity=100×(A450sample−A450LC)/(A450HC−A450LC). The low and high control values (“LC” and “HC”) were generated from lysate from wells without cells or with cells treated with 0.1% DMSO, respectively.

[3] = target: T2, phosphorylated EGFR (pEGFR) (Homo sapiens, UniProt P00533); test: Detection of phosphorylated EGFR (pEGFR) in EGF-stimulated A431 cells; assay type: cell-based; conditions: A431 cells (10% FBS), 4 hours incubation, EGF 30 ng/mL 10 minutes, AlphaLISA
T2 construct: performed to measure phosphorylated EGFR levels using A431 cells (10% FBS); endogenous in cells; host or cells: A431
Method: Enzyme-linked immunosorbent assays (ELISA) were performed to measure phosphorylated EGFR levels using A431 cells (10% FBS). A431 (1.0*10^4 cells/40 μl/well) cells were seeded in 384 well. Compounds were dissolved in DMSO, serially diluted in DMSO and then were added, mixed, and incubated for 4 hours at 37° C., 5% CO2. Following the 4-hours incubation, cells were stimulated for 10 minutes with EGF (Invitrogen, cat #PHG0311) at a final concentration of 30 ng/mL in the incubator. The media was aspirated and cells were lysed in 10 μL lysis buffer with protease and phosphatase inhibitors (PerkinElmer, cat #ALSU-PEGFR-A50K). The plates were placed on a shaker for 5 minutes and then incubated for 30 min at 4° C. for complete lysis. The lysate was transferred to an Optiplate (Perkin Elmer, cat #6007290).
Acceptor mix (PerkinElmer, cat #ALSU-PEGFR-A50K) was prepared just before use and 5 μL was dispensed to all the wells, followed by a 1.5-2 h incubation at room temperature in dark. The donor mix (PerkinElmer, cat #ALSU-PEGFR-A50K) was prepared under low light conditions prior to use and […] of donor mix was added to all the wells under subdued lighting or green filters. The plates were placed on a shaker for 5 min, sealed, and incubated overnight at room temperature in dark. Plates were read on the Envision (PerkinElmer) using standard AlphaLISA settings.
The percentage of inhibition on EGFR phosphorylation was calculated following equation: % Inhibition=100×(LumHC−LumSample)/(LumHC−LumLC). The low and high controls (LC/HC) are generated from lysate from wells with cells treated with DMSO or […] Staurosporine (BioAustralis, cat #BIA-S1086), […]. IC50 values were calculated by fitting the Curve using XLfit (v5.3.1.3), equation 201: Y=Bottom+(Top−Bottom)/(1+10^((Log IC50−X)*HillSlope)).

Ba/F3 ERBB2 A775_G776insYVMA, sequence (P04626 with tags, fused parts or gaps DUP772-775): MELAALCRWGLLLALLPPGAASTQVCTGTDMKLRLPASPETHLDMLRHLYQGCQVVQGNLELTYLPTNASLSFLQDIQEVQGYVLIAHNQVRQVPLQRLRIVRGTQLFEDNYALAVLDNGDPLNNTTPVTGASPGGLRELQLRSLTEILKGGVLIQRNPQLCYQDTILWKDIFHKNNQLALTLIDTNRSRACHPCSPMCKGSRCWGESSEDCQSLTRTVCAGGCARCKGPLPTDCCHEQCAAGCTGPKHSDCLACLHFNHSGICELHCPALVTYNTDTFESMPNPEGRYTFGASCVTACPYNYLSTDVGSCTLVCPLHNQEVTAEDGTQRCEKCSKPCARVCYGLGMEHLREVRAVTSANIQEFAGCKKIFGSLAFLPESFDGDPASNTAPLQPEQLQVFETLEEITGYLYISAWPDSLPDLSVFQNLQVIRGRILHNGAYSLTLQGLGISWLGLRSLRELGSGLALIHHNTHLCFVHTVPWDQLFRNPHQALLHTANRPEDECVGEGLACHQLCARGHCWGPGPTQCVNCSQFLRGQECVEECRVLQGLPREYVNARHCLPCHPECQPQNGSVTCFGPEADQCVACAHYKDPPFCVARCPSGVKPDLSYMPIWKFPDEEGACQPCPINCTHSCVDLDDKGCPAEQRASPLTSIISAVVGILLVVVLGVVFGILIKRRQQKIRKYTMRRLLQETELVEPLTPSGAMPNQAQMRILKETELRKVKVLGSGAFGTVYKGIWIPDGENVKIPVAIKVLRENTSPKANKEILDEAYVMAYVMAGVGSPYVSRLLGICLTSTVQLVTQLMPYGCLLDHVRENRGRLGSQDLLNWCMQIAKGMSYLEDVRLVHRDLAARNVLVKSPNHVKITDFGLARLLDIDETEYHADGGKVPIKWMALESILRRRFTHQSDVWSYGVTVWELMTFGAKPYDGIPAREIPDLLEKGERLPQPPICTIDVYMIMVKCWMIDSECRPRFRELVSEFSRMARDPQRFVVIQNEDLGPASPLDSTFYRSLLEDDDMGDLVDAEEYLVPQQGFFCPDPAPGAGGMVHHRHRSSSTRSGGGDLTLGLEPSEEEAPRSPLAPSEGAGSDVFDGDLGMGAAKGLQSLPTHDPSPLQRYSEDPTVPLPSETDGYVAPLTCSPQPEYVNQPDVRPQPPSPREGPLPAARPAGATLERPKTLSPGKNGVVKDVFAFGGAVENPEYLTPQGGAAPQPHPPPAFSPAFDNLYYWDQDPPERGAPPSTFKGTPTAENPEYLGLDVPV
T1 sequence (P04626 23-1255): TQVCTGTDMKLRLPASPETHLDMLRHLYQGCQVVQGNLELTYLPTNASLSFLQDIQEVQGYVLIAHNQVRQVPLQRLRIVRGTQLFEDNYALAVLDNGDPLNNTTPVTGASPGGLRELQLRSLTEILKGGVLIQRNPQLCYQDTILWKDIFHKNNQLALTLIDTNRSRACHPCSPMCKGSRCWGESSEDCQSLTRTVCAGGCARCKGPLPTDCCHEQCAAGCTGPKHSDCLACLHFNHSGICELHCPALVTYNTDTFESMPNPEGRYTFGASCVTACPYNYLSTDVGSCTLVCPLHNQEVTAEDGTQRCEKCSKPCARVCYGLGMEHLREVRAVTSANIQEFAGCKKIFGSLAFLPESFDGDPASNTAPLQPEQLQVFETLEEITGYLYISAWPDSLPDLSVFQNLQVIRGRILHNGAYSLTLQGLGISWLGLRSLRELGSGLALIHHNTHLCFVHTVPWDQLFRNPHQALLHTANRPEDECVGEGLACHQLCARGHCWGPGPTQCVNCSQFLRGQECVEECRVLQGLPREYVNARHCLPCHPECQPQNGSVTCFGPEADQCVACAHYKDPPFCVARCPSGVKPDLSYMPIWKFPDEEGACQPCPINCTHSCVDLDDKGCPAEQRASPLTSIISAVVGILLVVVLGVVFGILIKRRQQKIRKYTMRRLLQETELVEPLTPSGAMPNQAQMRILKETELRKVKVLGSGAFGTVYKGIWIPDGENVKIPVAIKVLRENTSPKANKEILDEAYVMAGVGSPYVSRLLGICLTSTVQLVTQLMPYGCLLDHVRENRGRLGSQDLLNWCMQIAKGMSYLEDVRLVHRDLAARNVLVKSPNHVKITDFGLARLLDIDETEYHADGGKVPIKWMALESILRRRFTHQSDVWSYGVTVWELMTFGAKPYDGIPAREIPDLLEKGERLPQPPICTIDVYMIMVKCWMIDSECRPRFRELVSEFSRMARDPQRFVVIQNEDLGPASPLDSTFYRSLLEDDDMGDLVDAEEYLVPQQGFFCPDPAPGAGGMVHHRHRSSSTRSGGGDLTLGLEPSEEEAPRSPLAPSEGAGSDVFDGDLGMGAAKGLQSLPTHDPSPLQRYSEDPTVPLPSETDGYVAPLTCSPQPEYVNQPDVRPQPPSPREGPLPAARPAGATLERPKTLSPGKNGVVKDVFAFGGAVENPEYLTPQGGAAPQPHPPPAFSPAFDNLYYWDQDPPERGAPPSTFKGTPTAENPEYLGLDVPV
T2 sequence (P00533 25-1210): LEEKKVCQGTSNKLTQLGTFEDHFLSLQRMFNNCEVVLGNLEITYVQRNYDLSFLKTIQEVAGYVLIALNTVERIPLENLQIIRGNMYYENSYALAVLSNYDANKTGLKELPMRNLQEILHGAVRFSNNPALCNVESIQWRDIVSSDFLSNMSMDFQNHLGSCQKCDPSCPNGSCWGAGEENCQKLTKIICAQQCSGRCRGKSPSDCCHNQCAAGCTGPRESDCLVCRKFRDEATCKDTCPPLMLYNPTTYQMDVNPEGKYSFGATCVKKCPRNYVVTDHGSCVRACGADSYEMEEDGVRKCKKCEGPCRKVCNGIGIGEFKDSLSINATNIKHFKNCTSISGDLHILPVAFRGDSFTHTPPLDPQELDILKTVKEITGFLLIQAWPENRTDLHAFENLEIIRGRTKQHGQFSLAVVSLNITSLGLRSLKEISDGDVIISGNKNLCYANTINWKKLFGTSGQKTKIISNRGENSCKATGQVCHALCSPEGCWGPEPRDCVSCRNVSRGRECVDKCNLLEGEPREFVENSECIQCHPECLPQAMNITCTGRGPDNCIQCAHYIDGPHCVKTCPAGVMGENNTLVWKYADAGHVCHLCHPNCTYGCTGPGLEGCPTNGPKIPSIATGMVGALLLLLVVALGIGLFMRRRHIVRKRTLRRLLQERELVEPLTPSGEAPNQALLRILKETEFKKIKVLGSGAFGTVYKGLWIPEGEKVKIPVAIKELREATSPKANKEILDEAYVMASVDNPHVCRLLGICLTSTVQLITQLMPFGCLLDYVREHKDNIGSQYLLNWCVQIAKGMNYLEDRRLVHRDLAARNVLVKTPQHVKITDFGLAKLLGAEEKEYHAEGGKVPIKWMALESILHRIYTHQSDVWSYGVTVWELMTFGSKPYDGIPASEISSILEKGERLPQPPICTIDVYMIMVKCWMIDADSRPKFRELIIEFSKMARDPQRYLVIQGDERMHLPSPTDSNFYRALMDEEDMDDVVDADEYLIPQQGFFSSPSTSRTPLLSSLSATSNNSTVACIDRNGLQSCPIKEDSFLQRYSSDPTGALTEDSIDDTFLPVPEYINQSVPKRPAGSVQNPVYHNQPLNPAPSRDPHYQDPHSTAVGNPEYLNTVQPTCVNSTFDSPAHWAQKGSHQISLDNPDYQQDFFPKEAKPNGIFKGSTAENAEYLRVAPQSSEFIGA

Row | SMILES | IC50 [2] | IC50 [3] | GI50 [1]
1 | C=C1CCN(c2ccc3ncnc(Nc4ccc(Oc5ccc6nccnc6c5)c(C)c4)c3c2)C1=O [Compound 46, 1-(4-((3-methyl-4-(quinoxalin-6-yloxy)phenyl)amino)quinazolin-6-yl)-3-methylenepyrrolidin-2-one] | 0.0651 µM | 0.759 µM | 0.0539 µM
2 | C=C1CCN(c2ccc3ncnc(Nc4ccc(Oc5ccc6c(c5)ncn6C)c(C)c4)c3c2)C1=O [Compound 27, 1-[4-({3-methyl-4-[(1-methyl-1,3-benzodiazol-5-yl)oxy]phenyl}amino)quinazolin-6-yl]-3-methylidenepyrrolidin-2-one] | 0.0171 µM | 0.604 µM | 0.0113 µM
3 | Cc1ccc(Oc2ccc(Nc3ncnc4cnc(N5CC/C(=C\CN(C)C)C5=O)cc34)cc2C)cn1 [Compound 75, (3E)-3-[2-(dimethylamino)ethylidene]-1-[4-({3-methyl-4-[(6-methylpyridin-3-yl)oxy]phenyl}amino)pyrido[3,4-d]pyrimidin-6-yl]pyrrolidin-2-one] | 0.0204 µM | 0.697 µM | 0.0104 µM
4 | C=C1CCCN(c2ccc3ncnc(Nc4ccc(Oc5ccn6ncnc6c5)c(C)c4)c3n2)C1=O [Compound 95, 1-(4-((4-([1,2,4]triazolo[1,5-a]pyridin-7-yloxy)-3-methylphenyl)amino)pyrido[3,2-d]pyrimidin-6-yl)-3-methylenepiperidin-2-one] | 0.0122 µM | 0.476 µM | 0.0052 µM
5 | CCc1ccc(Oc2ccc(Nc3ncnc4cnc(N5CC/C(=C\CN(C)C)C5=O)cc34)cc2C)cn1 [Compound 73, (E)-3-(2-(dimethylamino)ethylidene)-1-(4-((4-((6-ethylpyridin-3-yl)oxy)-3-methylphenyl)amino)pyrido[3,4-d]pyrimidin-6-yl)pyrrolidin-2-one] | 0.0415 µM | 0.514 µM | 0.022 µM
6 | [2H]C([2H])([2H])N(C/C=C1\CCN(c2ccc3ncnc(Nc4ccc(Oc5ccc6c(c5)ncn6C)c(C)c4)c3n2)C1=O)C([2H])([2H])[2H] [Compound 105, (E)-3-(2-(bis(methyl-d3)amino)ethylidene)-1-(4-((3-methyl-4-((1-methyl-1H-benzo[d]imidazol-5-yl)oxy)phenyl)amino)pyrido[3,2-d]pyrimidin-6-yl)pyrrolidin-2-one] | 0.0437 µM | 0.503 µM | 0.00217 µM
7 | Cc1cc(Nc2ncnc3ccc(N4CC/C(=C\CN(C)C)C4=O)nc23)ccc1Oc1ccn(C(F)F)c(=O)c1 [Compound 55, 1-(difluoromethyl)-4-[4-({6-[(3E)-3-[2-(dimethylamino)ethylidene]-2-oxopyrrolidin-1-yl]pyrido[3,2-d]pyrimidin-4-yl}amino)-2-methylphenoxy]pyridin-2-one] | 0.0231 µM | 0.25 µM | 0.023 µM
8 | Cc1cc(Nc2ncnc3cnc(N4CC/C(=C\CN(C)C)C4=O)cc23)ccc1Oc1cncc(F)c1 [Compound 155, (3E)-3-[2-(dimethylamino)ethylidene]-1-[4-({4-[(5-fluoropyridin-3-yl)oxy]-3-methylphenyl}amino)pyrido[3,4-d]pyrimidin-6-yl]pyrrolidin-2-one] | 0.0179 µM | 0.331 µM | 0.0354 µM
9 | CN(C)C/C=C1\CCN(c2ccc3ncnc(Nc4ccc(Oc5ccc6c(c5)ncn6C)cc4F)c3n2)C1=O [Compound 99, (3E)-3-[2-(dimethylamino)ethylidene]-1-[4-({2-fluoro-4-[(1-methyl-1,3-benzodiazol-5-yl)oxy]phenyl}amino)pyrido[3,2-d]pyrimidin-6-yl]pyrrolidin-2-one] | 0.0388 µM | > 10 µM | 0.00664 µM
10 | Cc1cc(Nc2ncnc3ccc(N4CC/C(=C\CN(C)C)C4=O)nc23)ccc1Oc1ccn2c(C)cnc2c1 [Compound 81, (E)-3-(2-(dimethylamino)ethylidene)-1-(4-((3-methyl-4-((3-methylimidazo[1,2-a]pyridin-7-yl)oxy)phenyl)amino)pyrido[3,2-d]pyrimidin-6-yl)pyrrolidin-2-one] | 0.0723 µM | 1.13 µM | 0.00386 µM

More lines, main results first:

Row | IC50 [2] | IC50 [3] | SMILES | GI50 [1]
11 | 0.0153 µM | 0.798 µM | C=C1C(=O)N(c2ccc3ncnc(Nc4ccc(Cc5ccn6ncnc6c5)c(C)c4)c3c2)C2CC12 (single isomer, unassigned) [Example S79, Enantiomer #2, 2-(4-((4-([1,2,4]triazolo[1,5-a]pyridin-7-ylmethyl)-3-methylphenyl)amino)quinazolin-6-yl)-4-methylene-2-azabicyclo[3.1.0]hexan-3-one] | 0.0137 µM
12 | 0.71 µM | > 10 µM | CC1CN(c2cc3c(Nc4cc(F)c(Oc5ccc6c(c5)nnn6C)cc4F)ncnc3cn2)C(=O)/C1=C/CN(C)C (single isomer, unassigned) [Example S125, Enantiomer #1, (3E)-1-[4-({2,5-difluoro-4-[(1-methyl-1,2,3-benzotriazol-5-yl)oxy]phenyl}amino)pyrido[3,4-d]pyrimidin-6-yl]-3-[2-(dimethylamino)ethylidene]-4-methylpyrrolidin-2-one] | > 0.5 µM
13 | 0.0119 µM | 0.158 µM | Cc1cc(Nc2ncnc3ccc(N4CC(C)C(=CCN(C)C)C4=O)nc23)ccc1Oc1ccn2ncnc2c1 (single isomer, unassigned) [Example S98, Enantiomer #1, 3-[2-(dimethylamino)ethylidene]-4-methyl-1-{4-[(3-methyl-4-{[1,2,4]triazolo[1,5-a]pyridin-7-yloxy}phenyl)amino]pyrido[3,2-d]pyrimidin-6-yl}pyrrolidin-2-one] | 0.00113 µM
14 | 0.032 µM | 1 µM | Cc1cc(Nc2ncnc3cnc(N4CC(C)/C(=C\CN(C)C)C4=O)cc23)c(F)cc1Oc1ccc2c(c1)nnn2C (single isomer, unassigned) [Example S115, Enantiomer #1, (3E)-3-[2-(dimethylamino)ethylidene]-1-[4-({2-fluoro-5-methyl-4-[(1-methyl-1,2,3-benzotriazol-5-yl)oxy]phenyl}amino)pyrido[3,4-d]pyrimidin-6-yl]-4-methylpyrrolidin-2-one] | 0.0113 µM
